Read-outs that look alike come from different tables or passages of the source.
How the values were obtained:
humans = settings: based on intravenous infusion studies; cited from earlier work
rodents = settings: oral; cited from earlier work
philtrum skin [1] = assay: philtrum skin cooling bioassay (subjective coolness rating 0-3); assay type: in vivo, human; settings: for Ratio of AUC 75/25% R/S to 25/75% R/S (fold increase in cooling activity): 49% distilled water, 1% ethanol
Description: The term “alcoholic solvent” refers to a chemical with one to four carbons with at least one hydroxyl group attached to a carbon atom. A reliable place for topical application is the skin above the upper lip (above the vermilion border of the lips), on the philtrum, lateral to the philtrum until the nasolabial folds, and on the lower nostrils (subnasale). This part of the face is known to be densely innervated with cold receptors, second only to the surfaces of the eyeball and anogenitalia. Tingling, cool and cold sensations from the skin may be experienced and rated for time of onset and intensity.
The intervals for recording sensations are 5 to 10 minutes, until two successive zeros are obtained. The results (shown in the Figures) are averaged values of 4 to 6 separate trials in the same individual. The data are plotted using SigmaPlot (Systat Software, Point Richmond, Calif.) and a smoothing function with a negative exponential was used for analysis and statistical fit of the results. The onset of drug action is taken as the time to reach 2 units of coolness intensity, and offset of drug action is the time when coolness intensity drops below 2, after previously surpassing 2 units. […] The duration of cooling action is defined as the offset time minus the onset time and the primary index of effect. As described in Examples, the test compounds were tested at 2 to 10 mg/mL of vehicle.
For assays on the skin, the cooling agent(s) was dissolved in the alcoholic solvent to yield a 2, 2.5, 3, 5 or 10 mg/mL solution. Using a cotton-tipped applicator (e.g. Q-tips®) 0.10 to 0.25 mL of the test solution was applied to the skin above the upper lip, on the philtrum, and lateral to the philtrum up to the nasolabial folds, and the onset and duration of cooling sensations noted. […] The interval for recording sensations was at 5 to 10 minute intervals, until at least two successive zeros were obtained. The results were averaged values of 3 to 6 separate trials in the same individual. The “onset” is the time taken to reach a coolness intensity value of 2. […] The “off-set” is when the coolness intensity drops below 2, and the duration is the time of off-set minus the time of onset. The area under the curve (AUC) gives an estimate of the intensity and duration of drug action and can be obtained from the plotted data using SigmaPlot (Systat Software, Point Richmond, Calif.). The AUC unit is the product of cooling intensity x min.

[2] = tested on: dorsal surface of the tongue; settings: 6 subjects; 100-fold variation in individual sensitivity; cited from earlier work
[3] = target: T1, cloned hTRPM8 channel (human TRPM8 gene, expressed in CHO cells) (Homo sapiens, UniProt Q7Z2W7); assay: agonist activity on cloned hTRPM8 channel, Fluo-8 calcium kit, FLIPR; assay type: cell-based
T1 construct: host or cells: CHO cells
Experimental: The in vitro effects of test articles were evaluated on cloned hTRPM8 channel (encoded by the human TRPM8 gene, expressed in CHO cells) using a Fluo-8 calcium kit and a Fluorescence Imaging Plate Reader (FLIPR^TETRA™) instrument. […] The total number of carbons in these trialkylphosphine oxides ranged from 12 to 15.
To further examine solvent-receptor interactions, stock solutions of 1-7 [1-(Diisopropyl-phosphinoyl)-heptane] were prepared in dimethyl sulfoxide (DMSO) or DMSO containing 10% or 30% by volume of the three isomers of 1,2-propanediol, (R/S-PD, R-PD, and S-PD) and stored frozen. Six dose levels were tested ranging from 0.003 to 3 μM. Ten μl of the test article solution were added to 40 μl of cells in HBPS in glass-lined 384-well compound plates, and placed into the FLIPR instrument for the fluorescence readout (Molecular Devices Corporation, Union City, Calif.).

[4] = tested on: periorbital skin and skin above the cheekbone; assay: cosmetic wipe over periorbital skin and skin above the cheekbone, six female subjects; assay type: in vivo, human; settings: 10 mg/mL in water (50%), 10% (S)-, 40% (R)-1,2-propanediol
Experimental: Six female subjects working at a cosmetics company volunteered to try topical applications of 1-7 and/or 1-8, formulated at 10 mg/mL in water (50%) and 10% (S)-1,2-propanediol, 40% (R)-1,2-propanediol wt/wt. The liquid was put on a cotton square and wiped over the periorbital skin and the skin above the cheekbone. All the subjects remarked on a refreshing coolness on the skin at the sites of application within 2 min after application. There was a “wow” effect, that was considered pleasant and stimulating. […] Four of the six subjects said they felt more “awake and energetic.”

[5] = tested on: itch (contact dermatitis) on the scalp; assay: topical application to scalp itch (contact dermatitis after hair dye), one individual; assay type: in vivo, human; settings: 5 mg/mL in 1% ethanol-99% (R)-1,2-propanediol, Yorker spout bottle
Experimental: An individual developed intense itch (contact dermatitis) on the scalp at the base of the skull after use of hair dye. A cotton-tipped stick was used to apply CPS-410 or CPS-412, 5 mg/mL dissolved in a 1% ethanol-99% (R)-1,2-propanediol, to the site of itch. The itch sensations were suppressed within 5 min after application of either solution and this effect lasted for at least 8 hr. In a second experiment, the solutions were applied using a plastic bottle with a conical Yorker spout. This allowed more precise droplet delivery of the solution to the site of itch. […] The advantage of liquid formulation is the ease of uniform delivery to the inflamed site, a method not achievable with cream or ointment. Itch symptoms of hair and fur occur in seborrheic dermatitis, psoriasis, insect bites, canine pruritus, and allergic dermatitis. Liquid formulations containing (R)-1,2-propanediol and a cooling agent may be therapeutically valuable in these conditions.

philtrum skin [6] = assay: philtrum skin cooling bioassay (subjective coolness rating 0-3); assay type: in vivo, human
TRPM8 receptor = TRPM8 receptor (Homo sapiens, UniProt Q7Z2W7); settings: cited from earlier work
[7] = 10 mg/mL in (R)-1,2-propanediol
[8] = TRPM8 receptor assay, read-out: EC50 μM (95% C, L.)

T1 sequence (Q7Z2W7 whole entry): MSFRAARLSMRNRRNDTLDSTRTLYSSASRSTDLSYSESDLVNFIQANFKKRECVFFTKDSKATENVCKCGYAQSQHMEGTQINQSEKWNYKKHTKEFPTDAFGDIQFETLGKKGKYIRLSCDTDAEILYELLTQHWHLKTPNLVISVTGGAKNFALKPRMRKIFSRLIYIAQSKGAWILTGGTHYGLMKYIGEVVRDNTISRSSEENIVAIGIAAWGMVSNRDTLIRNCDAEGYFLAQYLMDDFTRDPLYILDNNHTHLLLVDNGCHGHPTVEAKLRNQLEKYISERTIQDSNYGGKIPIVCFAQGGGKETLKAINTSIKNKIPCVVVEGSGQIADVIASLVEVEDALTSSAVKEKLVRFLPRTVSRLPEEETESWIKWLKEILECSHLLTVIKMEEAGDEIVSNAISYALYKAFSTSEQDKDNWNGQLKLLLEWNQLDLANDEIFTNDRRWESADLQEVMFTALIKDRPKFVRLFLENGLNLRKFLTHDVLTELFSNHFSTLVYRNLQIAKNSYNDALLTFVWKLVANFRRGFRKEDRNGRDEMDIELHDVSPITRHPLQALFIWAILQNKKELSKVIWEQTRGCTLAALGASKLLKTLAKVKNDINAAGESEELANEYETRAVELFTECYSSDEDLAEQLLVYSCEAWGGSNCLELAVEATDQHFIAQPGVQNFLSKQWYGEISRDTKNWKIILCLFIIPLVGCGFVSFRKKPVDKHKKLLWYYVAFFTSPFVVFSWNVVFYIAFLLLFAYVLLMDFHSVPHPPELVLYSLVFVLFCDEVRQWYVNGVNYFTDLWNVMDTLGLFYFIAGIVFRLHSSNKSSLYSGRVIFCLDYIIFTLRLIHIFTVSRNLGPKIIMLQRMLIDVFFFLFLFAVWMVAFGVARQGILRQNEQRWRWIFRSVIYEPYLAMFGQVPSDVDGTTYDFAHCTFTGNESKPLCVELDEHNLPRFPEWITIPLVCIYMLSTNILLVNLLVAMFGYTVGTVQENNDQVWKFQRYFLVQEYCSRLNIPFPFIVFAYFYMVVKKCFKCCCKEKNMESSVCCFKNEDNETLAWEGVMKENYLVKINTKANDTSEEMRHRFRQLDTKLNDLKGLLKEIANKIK
TRPM8 receptor, sequence (Q7Z2W7 whole entry): as above

CC(O)CO (racemic) [racemic 1,2-propanediol]
estimated safe dose (humans): 1 g per kg body weight per day
median lethal dose (rodents): about 25 mL/kg of body weight

CC(C)[C@@H]1CC[C@@H](C)C[C@H]1O (single isomer, unassigned) [(−)-menthol, reference compound]
cooling duration (philtrum skin [1]; 10 mg/mL in 1,3-propanediol): 13 ± 1 min
cooling duration (philtrum skin [1]; [7]): 21 ± 2 min
average threshold for cooling on tongue (Threshold, μg) [2]: 0.25 µg

CCCCCP(=O)(C(C)C)C(C)C [1-5]
Ratio of AUC 75/25% R/S to 25/75% R/S (fold increase in cooling activity) (philtrum skin [1]): 1.5
Potency Relative to I-menthol ([3]; TRPM8 receptor assay): 0.7
EC50 [3, 8]: 5.6 µM

CCCCCCP(=O)(C(C)C)C(C)C [1-6]
Ratio of AUC 75/25% R/S to 25/75% R/S (fold increase in cooling activity) (philtrum skin [1]): 1.7
Potency Relative to I-menthol ([3]; TRPM8 receptor assay): 1.6
EC50 [3, 8]: 2.4 µM

CCCCCCCP(=O)(C(C)C)C(C)C [1-7, 1-(Diisopropyl-phosphinoyl)-heptane]
irritation or redness on the skin after applications [4]: no irritation or redness
time facial skin felt cool and dry after application ([4]; all subjects): at least one hour
Ratio of AUC 75/25% R/S to 25/75% R/S (fold increase in cooling activity) (philtrum skin [1]): 1.6
ratio of the EC50 for the R versus S enantiomers of 1,2-propanediol ([3]; C.L. overlap): about 2
EC50 ([3]; HBPS, 30% volume series, read-out: EC50 (95% C.L.)): 1.6 µM
Potency Relative to I-menthol ([3]; TRPM8 receptor assay): 5.4
EC50 [3, 8]: 0.7 µM
EC50 ([3]; stock in DMSO containing 30% by volume R-PD, read-out: EC50 (95% C.L.)): 2.2 µM
EC50 ([3]; stock in DMSO containing 30% by volume R/S-PD, read-out: EC50 (95% C.L.)): 2.9 µM
EC50 ([3]; stock in DMSO containing 30% by volume S-PD, read-out: EC50 (95% C.L.)): 4.4 µM

CCCCCCCCCP(=O)(C(C)C)C(C)C [1-9]
Potency Relative to I-menthol ([3]; TRPM8 receptor assay): 4.0
EC50 [3, 8]: 0.9 µM

CCCCP(=O)(C(C)CC)C(C)CC (stereo not shown) [2-4]
Ratio of AUC 75/25% R/S to 25/75% R/S (fold increase in cooling activity) (philtrum skin [1]): 1.9
Potency Relative to I-menthol ([3]; TRPM8 receptor assay): 0.3
EC50 [3, 8]: 14.5 µM

CCCCCP(=O)(C(C)CC)C(C)CC (stereo not shown) [2-5]
Ratio of AUC 75/25% R/S to 25/75% R/S (fold increase in cooling activity) (philtrum skin [1]): 1.4
Potency Relative to I-menthol ([3]; TRPM8 receptor assay): 2.2
EC50 [3, 8]: 1.7 µM

CCCCCCCCP(=O)(C(C)CC)C(C)CC (stereo not shown) [2-8]
Potency Relative to I-menthol ([3]; TRPM8 receptor assay): 2.9
EC50 [3, 8]: 1.3 µM

CCCCCCP(=O)(C(C)CC)C(C)CC (stereo not shown) [CPS-147, 1-(Di-sec-butyl-phosphinoyl)-hexane]
Ratio of AUC 75/25% R/S to 25/75% R/S (fold increase in cooling activity) (philtrum skin [1]): 1.6
Potency Relative to I-menthol ([3]; TRPM8 receptor assay): 4.7
EC50 [3, 8]: 0.8 µM

CCOC(=O)[C@@H](C)NC(=O)[C@@H]1C[C@H](C)CC[C@H]1C(C)C [CPS-369, (R)-2-[((1R,2S,5R)-2-isopropyl-5-methyl-cyclohexanecarbonyl)-amino]-propionic acid ethyl ester]
Cooling Activity % (relative to (R)-1,2-propanediol) (philtrum skin [1]; 10 mg/mL in 1,3-propanediol, inactive = did not exceed 2 units of coolness): inactive
Cooling Activity % (relative to (R)-1,2-propanediol) (philtrum skin [1]; [7]): 100%
Cooling Activity % (relative to (R)-1,2-propanediol) (philtrum skin [1]; 10 mg/mL in (S)-1,2-propanediol, based on AUC): 47%
Cooling Activity % (relative to (R)-1,2-propanediol) (philtrum skin [1]; 10 mg/mL in ethanol, inactive = did not exceed 2 units of coolness): inactive
Cooling Activity % (relative to (R)-1,2-propanediol) (philtrum skin [1]; 10 mg/mL in isopropanol, inactive = did not exceed 2 units of coolness): inactive
Cooling Activity % (relative to (R)-1,2-propanediol) (philtrum skin [1]; 10 mg/mL in n-propanol, inactive = did not exceed 2 units of coolness): inactive
Cooling Activity % (relative to (R)-1,2-propanediol) (philtrum skin [1]; 10 mg/mL in racemic 1,3-butanediol): 10%

CCCOC(=O)[C@@H](C)NC(=O)[C@@H]1C[C@H](C)CC[C@H]1C(C)C [CPS-410, (R)-2-[((1R,2S,5R)-2-isopropyl-5-methyl-cyclohexanecarbonyl)-amino]-propionic acid n-propyl ester]
sensations of coolness after application to scalp [5]: produced sensations of coolness

CCCCOC(=O)[C@@H](C)NC(=O)[C@@H]1C[C@H](C)CC[C@H]1C(C)C [CPS-412, (R)-2-[((1R,2S,5R)-2-isopropyl-5-methyl-cyclohexanecarbonyl)-amino]-propionic acid n-butyl ester]
sensations of coolness after application to scalp [5]: less noticeable

CCNC(=O)C1CC(C)CCC1C(C)C (stereo not shown) [WS-3, 2-Isopropyl-5-methyl-cyclohexanecarboxylic acid ethylamide]
duration of robust cooling (philtrum skin [6]; 20 mg/mL in 97% (R)-1,2-propanediol-3% ethanol, with prickling and stinging sensations): 38 ± 3 min
cooling effect (philtrum skin [6]; 20 mg/mL in absolute ethanol): did not produce significant cooling

CCOC(=O)CNC(=O)[C@@H]1C[C@H](C)CC[C@H]1C(C)C [WS-5, [((1R,2S,5R)-2-isopropyl-5-methyl-cyclohexanecarbonyl)-amino]-acetic acid ethyl ester, reference compound]
cooling effect (philtrum skin [1]; 10 mg/mL in 100% ethanol): did not produce any cooling effect

CCO [ethanol]
inhibition of TRPM8 receptor response to (−)-menthol (TRPM8 receptor; 0.5% ethanol in the medium): 50%
TRPM8 receptor response to (−)-menthol (TRPM8 receptor; 3% concentration of ethanol): almost totally lost

(R)-(−)-1,2-propanediol [(R)-1,2-propanediol]
effect on ethanol inhibition of WS-5 cooling (philtrum skin [1]; added at 10%, 20% and 40% vol/vol to ethanolic solution of WS-5 10 mg/mL): reversed the ethanol inhibition in a dose-dependent relationship
